Results: patent publication US20260248761A1, “COMPOSITIONS AND METHODS FOR TREATMENT OF PULMONARY HYPERTENSION” (EpicentRx, Inc., priority 2022, published 2026)
Where “and” joins values, the source holds several entries; their conditions need not be identical. Equal values may be shown once. Read-outs that look alike come from different tables or passages of the source.

What was measured:
male Wistar rats [1] = assay: H&E staining of the pulmonary arteriole (pulmonary vascular remodeling); format: in vivo, rat; details: FIG. 10, hypoxia induced PAH rats
Excerpt: FIG. 10 depicts the effect of the RRx-001 and Bosentan on pulmonary vascular remodeling. Specifically, FIG. 10 depicts images showing H&E staining in the pulmonary arteriole.

male Wistar rats [2] = format: in vivo, rat
Method: To measure the wet weight ratio, the heart was excised, the atria were removed, and the wall of the right ventrical (RV) was separated from the heart. Tissues were blotted and weighed.
(§1) Male Wistar rats were kept in an isobaric hypoxic chamber with intermittent hypoxia (FiO2=10%) for (1) week (6 hours/day, 6 day/week). […] For administration, the RRx-001 (10 mg/kg) was mixed with blood and injected via the tail at the beginning of hypoxia exposure every day. […] Untreated control animals were not administered any agents and the SHAM (Control) group was not subjected to hypoxia.
The wet weight ratio is an indicator of right ventricle hypertrophy. The wet weight ratios were measured according to the same procedure as set out in the description for FIG. 2.

male Wistar rats [3] = format: in vivo, rat; remark: listed apart in the source
Method: as §1
Mean aortic pressure (mAP) was recorded by an arterial catheter inserted via the carotid artery.

Wistar rats = details: FIG. 9, blood
male Wistar rats [4] = assay: Echocardiograph: ejection fraction and fractional shortening, hypoxia PAH study; details: RRx-001 5 mg/kg or Bosentan 50 mg/kg mixed with blood; for ejection fraction, lower value / ejection fraction, median value / ejection fraction, upper value: FIG. 3A; for ejection fraction, lower value: PAH group 49%, control 65%; for ejection fraction, median value: PAH group 51%, control 68%; for ejection fraction, median value / fractional shortening, median value: RRx-001 p<0.05 vs PAH; for ejection fraction, upper value: PAH group 59%, control 72%; for fractional shortening, median value / fractional shortening, upper value: FIG. 3B; for fractional shortening, median value: PAH group 31%, control 42%; for fractional shortening, upper value: PAH group 33%, control 44%
Method: The male Wistar rats exposed to hypoxia were then divided into 3 groups for the study. A first group of 6 male Wistar rats were untreated and labeled “PAH”. A second group of 6 male Wistar rats were treated with the RRx-001. A third group of 6 male Wistar rats were treated with Bosentan, which is a drug that is used to treat PAH.
Treatment for the second group of male Wistar rats comprised mixing 5 mg/kg RRx-001 with blood and administering the mixture via tail injection before the hypoxia exposure. Similarly, treatment for the third group of male Wistar rats comprised mixing 50 mg/kg Bosentan with blood and administering the mixture daily via tail injection before the hypoxia exposure.

male Wistar rats [5] = assay: Lung morphological changes: relative medial wall thickness and area, hypoxia PAH study; format: in vivo, rat; details: RRx-001 5 mg/kg or Bosentan 50 mg/kg mixed with blood; for medial wall thickness relative to external diameter, lower value / medial wall thickness relative to external diameter, median value / medial wall thickness relative to external diameter, upper value: FIG. 4A; for medial wall thickness relative to external diameter, lower value: PAH group 0.13, control 0.07; for medial wall thickness relative to external diameter, median value: PAH group 0.14, control 0.07; for medial wall thickness relative to external diameter, upper value: PAH group 0.15, control 0.08; for medial wall area relative to lumen area, lower value / medial wall area relative to lumen area, median value / medial wall area relative to lumen area, upper value: FIG. 4B; for medial wall area relative to lumen area, lower value: PAH group 0.16, control 0.11; for medial wall area relative to lumen area, median value: PAH group 0.17, control 0.12; for medial wall area relative to lumen area, upper value: PAH group 0.21, control 0.14
Method: To collect the data, male Wistar rats lungs were removed and fixed in paraformaldehyde, then dehydrated and embedded in paraffin for sectioning. The relative medial thickness and relative medial areas were calculated from vessels showing a clearly defined external and internal elastic lamina.

male Wistar rats [6] = format: in vivo, rat; details: FIG. 5A, hypoxia 1 week
Method: as §1
Mean pulmonary pressure (mPAP) was recorded using a catheter introduced in the right jugular vein and passed across the tricuspid valve and right ventricle into the pulmonary artery.

male Wistar rats [7] = assay: Wet weight ratio (Fulton index) RV/(LV+SP), right ventricular hypertrophy, hypoxia PAH study; format: in vivo, rat; details: FIG. 2, RRx-001 5 mg/kg or Bosentan 50 mg/kg mixed with blood; for wet weight ratio RV/(LV+SP), lower value: PAH group 0.38, control 0.28; for wet weight ratio RV/(LV+SP), median value: PAH group 0.43, control 0.31; for wet weight ratio RV/(LV+SP), upper value: PAH group 0.44, control 0.33
Excerpt: A distribution of the collected data is plotted on the graph for the 4 groups of male Wistar rats: the control group, the PAH group, the RRx-001 group, and the Bosentan group. The calculated wet weight ratio is intended to be an indicator of right ventricular hypertrophy.
To measure the wet weight ratio, the heart was excised, the atria were removed, and the wall of the right ventrical (RV) was separated from the heart. Tissues were blotted and weighed. […] The elevated pulmonary arterial pressure was paralleled by an increase in systolic pressure, and right ventricular hypertrophy according to the Fulton index.

male Wistar rats [8] = assay: Mean aortic pressure (mAP) by arterial catheter, intermittent hypoxia PAH study; format: in vivo, rat; details: FIG. 1B, RRx-001 5 mg/kg or Bosentan 50 mg/kg mixed with blood; for mAP, lower value of group distribution: PAH group 117, control 98; for mAP, median value of group distribution: PAH group 137, control 113, RRx-001 p<0.05 vs PAH; for mAP, upper value of group distribution: PAH group 147, control 116
Method: (§2) The study exposed 18 male Wistar rats to an isobaric chamber with intermittent hypoxia where the fraction of inspired oxygen (FiO2) is 10%.
The second graph, FIG. 1B, is a distribution of mean aortic pressure (mAP) that was recorded by an arterial catheter inserted via the carotid artery of the male Wistar rats. The PAH group distribution has an upper value for mAP of approximately 147 mmHg, a median value for the mAP of approximately 137 mmHg, and a lower value for the mAP of approximately 117 mmHg. The RRx-001 group has an upper value for the mAP of approximately 134 mmHg, a median value for the mAP of approximately 121 mmHg, and a lower value for the mAP of approximately 116 mmHg. The p value as determined for the mAP results between the PAH group and the RRx-001 group is less than 0.05.

male Wistar rats [9] = assay: Mean pulmonary artery pressure (mPAP) by catheter, intermittent hypoxia PAH study; format: in vivo, rat; details: FIG. 1A, intermittent hypoxia FiO2 10%, RRx-001 5 mg/kg or Bosentan 50 mg/kg mixed with blood, tail injection; for mPAP, lower value of group distribution: PAH group 27, control 16; for mPAP, median value of group distribution: PAH group 30, control 17, RRx-001 p<0.05 vs PAH; for mPAP, upper value of group distribution: PAH group 33, control 20
Method: as §2
The mPAP was recorded in FIG. 1A using a catheter introduced into the right jugular vein of the male Wistar rats and passed across the tricuspid valve and a right ventricle into the pulmonary artery. A distribution of the mPAP results for the various groups is plotted in FIG. 1A.

SMILES: O=C(CBr)N1CC([N+](=O)[O-])([N+](=O)[O-])C1 [RRx-001, 2-bromo-1-(3,3-dinitroazetidin-1-yl) ethan-1-one]
- increases in pulmonary vascular wall thickness and muscularization of the pulmonary arteriole (male Wistar rats [1]): inhibited
- median wet weight ratio RV/(LV+SP) (male Wistar rats [2]; FIG. 7/8, hypoxia 1 week, RRx-001 10 mg/kg + nitrite 10 mg/kg): approximately 0.40 mg/mg
- median wet weight ratio RV/(LV+SP) (male Wistar rats [2]; FIG. 7/8, hypoxia 1 week, RRx-001 10 mg/kg + nitrite 20 mg/kg): ~0.35 mg/mg
- median wet weight ratio RV/(LV+SP) (male Wistar rats [2]; FIG. 7/8, hypoxia 1 week, RRx-001 10 mg/kg + nitrite 40 mg/kg): ~0.32 mg/mg
- effect on right ventricle hypertrophy (wet weight ratio) (male Wistar rats [2]; FIG. 7/8, hypoxia study with nitrite, result in words): has an effect on right ventricle hypertrophy
- median wet weight ratio RV/(LV+SP) (male Wistar rats [2]; rat, in vivo, 10 mg/kg): approximately 0.37 mg/mg
- median mAP (male Wistar rats [3]; FIG. 5B, hypoxia 1 week, RRx-001 10 mg/kg + nitrite 10 mg/kg s.c.): ~115 mmHg
- median mAP (male Wistar rats [3]; FIG. 5B, hypoxia 1 week, RRx-001 10 mg/kg + nitrite 20 mg/kg s.c.): ~107 mmHg
- median mAP (male Wistar rats [3]; FIG. 5B, hypoxia 1 week, RRx-001 10 mg/kg + nitrite 40 mg/kg s.c.): ~102 mmHg
- median mAP (male Wistar rats [3]; FIG. 5B, hypoxia 1 week, RRx-001 10 mg/kg mixed with blood daily, nitrite 0, saline/0 nitrite 137, control 124, SHAM 109): approximately 116 mmHg
- median metHb concentration (Wistar rats; RRx-001 10 mg/kg + nitrite 10 mg/kg): ~3%
- median metHb concentration (Wistar rats; RRx-001 10 mg/kg + nitrite 20 mg/kg): ~7%
- median metHb concentration (Wistar rats; RRx-001 10 mg/kg + nitrite 40 mg/kg): ~12%
- median metHb concentration (Wistar rats; RRx-001 10 mg/kg, nitrite 0, saline/0 nitrite and controls 1%): approximately 1%
- ejection fraction, lower value (male Wistar rats [4]): approximately 60%
- ejection fraction, median value (male Wistar rats [4]): approximately 66%
- ejection fraction, upper value (male Wistar rats [4]): approximately 69%
- fractional shortening, median value (male Wistar rats [4]): approximately 38%
- fractional shortening, upper value (male Wistar rats [4]): approximately 39%
- medial wall thickness relative to external diameter, lower value (male Wistar rats [5]): approximately 0.07
- medial wall thickness relative to external diameter, median value (male Wistar rats [5]): approximately 0.08
- medial wall thickness relative to external diameter, upper value (male Wistar rats [5]): approximately 0.09
- medial wall area relative to lumen area, lower value (male Wistar rats [5]): approximately 0.14
- medial wall area relative to lumen area, median value (male Wistar rats [5]): approximately 0.14
- medial wall area relative to lumen area, upper value (male Wistar rats [5]): approximately 0.16
- median mPAP (male Wistar rats [6]; RRx-001 10 mg/kg + nitrite (NaNO2) 10 mg/kg s.c.): ~18 mmHg
- median mPAP (male Wistar rats [6]; RRx-001 10 mg/kg + nitrite (NaNO2) 20 mg/kg s.c.): ~16 mmHg
- median mPAP (male Wistar rats [6]; RRx-001 10 mg/kg + nitrite (NaNO2) 40 mg/kg s.c.): ~15 mmHg
- median mPAP (male Wistar rats [6]; RRx-001 10 mg/kg mixed with blood daily, nitrite 0, saline/0 nitrite 23, control 20, SHAM 17): approximately 17 mmHg
- wet weight ratio RV/(LV+SP), lower value (male Wistar rats [7]): approximately 0.34
- wet weight ratio RV/(LV+SP), median value (male Wistar rats [7]): approximately 0.35
- wet weight ratio RV/(LV+SP), upper value (male Wistar rats [7]): approximately 0.39
- mAP, lower value of group distribution (male Wistar rats [8]): approximately 116 mmHg
- mAP, median value of group distribution (male Wistar rats [8]): approximately 121 mmHg
- mAP, upper value of group distribution (male Wistar rats [8]): approximately 134 mmHg
- mPAP, lower value of group distribution (male Wistar rats [9]): approximately 23 mmHg
- mPAP, median value of group distribution (male Wistar rats [9]): approximately 26 mmHg
- mPAP, upper value of group distribution (male Wistar rats [9]): approximately 28 mmHg

SMILES: O=NO [nitrite, reference compound]
- effect of nitrite on mAP versus mPAP (male Wistar rats [3]; rat, in vivo): systemic effect on mAP but less significant on mPAP
- median mAP (male Wistar rats [3]; rat, in vivo): ~122 mmHg and ~126 mmHg and ~120 mmHg

SMILES: COc1ccccc1Oc1c(NS(=O)(=O)c2ccc(C(C)(C)C)cc2)nc(-c2ncccn2)nc1OCCO [Bosentan, reference compound]
- ejection fraction, lower value (male Wistar rats [4]): approximately 52%
- ejection fraction, median value (male Wistar rats [4]): approximately 59%
- ejection fraction, upper value (male Wistar rats [4]): approximately 63%
- fractional shortening, median value (male Wistar rats [4]): approximately 38%
- fractional shortening, upper value (male Wistar rats [4]): approximately 42%
- medial wall thickness relative to external diameter, lower value (male Wistar rats [5]): approximately 0.09
- medial wall thickness relative to external diameter, median value (male Wistar rats [5]): approximately 0.10
- medial wall thickness relative to external diameter, upper value (male Wistar rats [5]): approximately 0.12
- medial wall area relative to lumen area, lower value (male Wistar rats [5]): approximately 0.14
- medial wall area relative to lumen area, median value (male Wistar rats [5]): approximately 0.16
- medial wall area relative to lumen area, upper value (male Wistar rats [5]): approximately 0.17
- wet weight ratio RV/(LV+SP), lower value (male Wistar rats [7]): approximately 0.32
- wet weight ratio RV/(LV+SP), median value (male Wistar rats [7]): approximately 0.35
- wet weight ratio RV/(LV+SP), upper value (male Wistar rats [7]): approximately 0.39
- mAP, lower value of group distribution (male Wistar rats [8]): approximately 108 mmHg
- mAP, median value of group distribution (male Wistar rats [8]): approximately 120 mmHg
- mAP, upper value of group distribution (male Wistar rats [8]): approximately 126 mmHg
- mPAP, lower value of group distribution (male Wistar rats [9]): approximately 21 mmHg
- mPAP, median value of group distribution (male Wistar rats [9]): approximately 22 mmHg
- mPAP, upper value of group distribution (male Wistar rats [9]): approximately 24 mmHg
